Results taken from US10792305B2, “Therapeutic immune modulation using noble gas compositions” (NOBILIS THERAPEUTICS, INC., priority 2015, dated 2020).
Entries after “also recorded” stand apart in the source; their conditions may differ.

What was measured:
[1] = test system: severely disruptive symptoms related to autistic disorder; settings: pentoxifylline titrated to 600 mg/day with risperidone up to 3 mg/day, 10 weeks, versus placebo+risperidone; cited from earlier work
[2] = test system: TNF-alpha production from monocytes; test: Induced TNF-alpha production by monocytes (adherent PBMC), ELISA; assay type: cell-based, human; settings: 30% xenon by volume for 1 or 2 hours; 1 ug/ml LPS and 10 μM amyloid beta peptide Aβ (1-42) for 24 h; supernatant ELISA
Description: 10 ml of heparinized blood was extracted from healthy volunteers and peripheral blood mononuclear cells were isolated by centrifugation over a ficoll gradient. Cells were subsequently washed in 2× volume phosphate buffered saline, and resuspended in RPMI media supplemented with 10% fetal calf serum. Cells were incubated at a concentration of 10 million cells per ml in 6-well plates in a volume of 2 ml per well. Cells were cultured for 24 hours at 37 Celsius in a fully humidified atmosphere with 5% CO2, subsequent to which non-adherent cells were removed by washing with PBS. Adherent cells were subsequently divided into […], one plate incubated at normoxic tissue culture, the second plate cultured for 1 hour in 30% xenon by volume, and the third tissue cultured for 2 hours in 30% volume. Cells were treated with control media, 1 ug/ml LPS and 10 μM of amyloid beta peptide Aβ (1-42) for 24 h. Supernatant was collected and assessed for TNF-alpha production by ELISA.

[3] = test system: IL-12 production from dendritic cells; test: Induced IL-12 production by dendritic cells, ELISA; assay type: cell-based, human; settings: CD1c dendritic cells; 1 ug/ml LPS and 10 μM amyloid beta peptide Aβ (1-42) for 24 h; supernatant ELISA
Description: Monocytes from adherent PBMC were isolated as described in Example 1. Dendritic cells were generated by 7 day culture in IL-4 (10 ng/ml) and GM-CSF (20 ng/ml). Media was changed every two days. On day 7, purification of CD1c dendritic cells was performed and cells were cultured in control media, 1 ug/ml LPS and 10 μM of amyloid beta peptide Aβ (1-42) for 24 h. Supernatant was collected and assessed for IL-12 production by ELISA.

[4] = test system: behavioral symptoms of children with ASD; settings: 30 or 60 mg per day p.o. for 3-4 months, 25 children; cited from earlier work
PTSD = settings: 20 mg/day and 40 mg/day, cited from earlier work

## CC(=O)CCCCn1c(=O)c2c(ncn2C)n(C)c1=O [pentoxifylline]
[1]
  ABC-C subscale scores (Irritability, Lethargy/Social Withdrawal, Stereotypic Behavior, Hyperactivity/Noncompliance, Inappropriate Speech): greater reduction in ABC-C subscale scores

## [Xe] [xenon gas, xenon]
[2]
  induced TNF-alpha production (FIG. 1): suppression of induced TNF-alpha production was observed; also recorded: suppression of inducible TNF-alpha production
[3]
  induced IL-12 production (FIG. 2): suppression of induced IL-12 production was observed; also recorded: suppression of inducible IL-12 production

## CCc1ccc(CCOc2ccc(CC3SC(=O)NC3=O)cc2)nc1 (stereo not shown) [pioglitazone]
[4]
  adverse events: without adverse events

## Fc1ccc([C@@H]2CCNC[C@H]2COc2ccc3c(c2)OCO3)cc1 [paroxetine]
PTSD; intent-to-treat analysis
  improvement on primary outcome measures compared to placebo: significantly greater improvement
PTSD; versus placebo
  PTSD symptom clusters (reexperiencing, avoidance/numbing, hyperarousal), social and occupational impairment, comorbid depression: statistically significant improvement compared to placebo
PTSD
  tolerability: well tolerated
